Some results are limits rather than exact numbers.

This test addresses T1, Tyrosine-protein kinase receptor UFO (Homo sapiens, UniProt P30530).
T1 sequence (P30530 whole entry): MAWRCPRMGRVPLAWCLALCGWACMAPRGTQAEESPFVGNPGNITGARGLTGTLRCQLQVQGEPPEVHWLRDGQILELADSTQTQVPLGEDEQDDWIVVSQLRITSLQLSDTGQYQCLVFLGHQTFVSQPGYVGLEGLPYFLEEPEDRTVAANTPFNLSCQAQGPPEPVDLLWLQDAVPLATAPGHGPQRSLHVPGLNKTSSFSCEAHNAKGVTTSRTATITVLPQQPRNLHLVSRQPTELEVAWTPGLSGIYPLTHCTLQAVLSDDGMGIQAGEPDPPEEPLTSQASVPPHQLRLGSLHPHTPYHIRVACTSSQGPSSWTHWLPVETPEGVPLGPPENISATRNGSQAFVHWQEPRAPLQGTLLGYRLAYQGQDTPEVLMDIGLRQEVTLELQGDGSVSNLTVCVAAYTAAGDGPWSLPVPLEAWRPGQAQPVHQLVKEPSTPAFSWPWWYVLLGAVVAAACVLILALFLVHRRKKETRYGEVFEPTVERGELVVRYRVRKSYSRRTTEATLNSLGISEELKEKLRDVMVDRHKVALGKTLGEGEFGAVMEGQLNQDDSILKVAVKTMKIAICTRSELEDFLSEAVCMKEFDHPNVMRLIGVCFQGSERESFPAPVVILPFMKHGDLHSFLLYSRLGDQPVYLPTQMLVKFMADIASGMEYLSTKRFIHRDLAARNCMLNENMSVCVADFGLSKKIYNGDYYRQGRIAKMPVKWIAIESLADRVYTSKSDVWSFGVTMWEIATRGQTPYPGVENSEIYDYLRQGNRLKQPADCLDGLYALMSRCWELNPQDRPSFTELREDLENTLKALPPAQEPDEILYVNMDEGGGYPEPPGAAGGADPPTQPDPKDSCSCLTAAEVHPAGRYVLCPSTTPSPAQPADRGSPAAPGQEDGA
Kind of test: Kinase Assay: The ability of compounds to inhibit the kinase activity of recombinant human baculovirus-expressed AXL was measured by homogeneous TRF (HTRF) using Cisbio's KinEASE assay system in white 384-well Optiplates. Assay buffer contained 1 mM DTT, 2 mM MnCl2, 2% DMSO, 50 nM supplement enzymatic buffer, and 1× enzymatic buffer. A 2× concentration of tyrosine kinase (TK) substrate-biotin/ATP mixture made in assay buffer was added to plates at 10 μL/well using the Multidrop Combi (Thermo Fisher Scientific, Waltham, Mass.). […] Compounds (100 nL), diluted in 100% DMSO on the Biomek FX, (Beckman Coulter, Inc., Brea, Calif.), were transferred to the assay plates using the Biomek FX pintool (2.5% final DMSO in assay). A 2× concentration (final=12 ng/mL) of GST-AXL (diluted in assay buffer) was added to plates at 10 uL/well using the Multidrop Combi. Plates were sealed, briefly shaken and incubated at 25° C. for 30 minutes. […] Plates were sealed, briefly shaken and incubated at 25° C. for 1 hour.
In general, IC50 refers to the concentration that inhibits the measured activity by half. As for `C=CCn1cc(C(=O)Nc2ccc(Oc3ccnc4cc(OC)c(OC)cc34)c(F)c2)c(=O)n(CC=C)c1=O`, the IC50 was less than 10 nM.

`CCn1cc(C(=O)Nc2ccc(Oc3ccnc4cc(OC)c(OC)cc34)c(Cl)c2)c(=O)n(-c2ccc(F)cc2)c1=O`: the IC50 is less than 10 nM.

`CCn1nc(C(=O)Nc2ccc(Oc3ccnc4cc(OC)c(OC)cc34)cn2)c(=O)n(-c2ccc(F)cc2)c1=O`: the IC50 was less than 10 nM.

The record behind these values is ChEMBL document CHEMBL5726364, “Uracil derivatives as AXL and c-MET kinase inhibitors” (2017).
